One compound from publication PMC11464467 (Journal of Advanced Research, 2023) can be followed below.

Molecules are shown by their SMILES.

Assay [1] deals with MPTP-induced mice PD model. Kind of assay: Footprint test in MPTP-induced mice PD model. It counts as in vivo. As to conditions: selegiline 10 mg/kg orally twice daily 14 days; not statistically significant.
The subject of assay [2] is striatal DA. As to the kind of experiment: HPLC-ECD striatal DA in MPTP mice. It counts as in vivo. Particulars: MPTP-treated mice, selegiline 10 mg/kg.

Regarding `C#CCN(C)[C@H](C)Cc1ccccc1` [selegiline], the “Locomotion impairments in footprint test (time to cross corridor, stride length)” value in assay [1] is given as “attenuated these locomotion impairments”. In addition, in assay [2], the “Increase in dopamine levels” value came out at 15.35%.
